Assay results as given in US11357865B2, “Compositions containing nucleic acid nanoparticles with modular functionality” (Sixfold Bioscience Ltd., priority 2020, dated 2022).

System: HeLa cells
Test: Aptamer uptake, confocal fluorescence microscopy of live HeLa cells
Type: cell-based
Settings: 200 nM Cy5-labelled aptamer, increasing lengths of time, Lysotracker and early endosome GFP stains
Procedure: Cells were imaged by confocal microscopy after treatment with 200 nM Cy5-labelled E07 min A-1.0 aptamer (A-1.0) or 200 nM Cy5-labelled constructs (SQ1-1000-001). For aptamer uptake experiments, 1×10^4 cells were plated in each well of a μ-Slide 8 well ibiditreat chamber (IBIDI), in 300 μL DMEM containing 10% v/v FBS. For uptake experiments, 3.4×10^3 cells (HeLa, MDA-MB-231 and A549 cells) or 6.8×10^3 cells (Mcf-7) were plated in each well of a μ-Slide 18 well ibiditreat chamber (IBIDI), in 100 μL DMEM containing 10% v/v FBS. 5 hours after cells had adhered and 48 hours before imaging, media was replaced with 50 particles per cell (PPC) CellLight early endosome-GFP (Thermo Fisher Scientific) for overnight incubation at 37° C. Additionally, 200 μL DMEM aliquots containing 200 nM aptamer were added to cells at corresponding incubation time points. Subsequently, media was removed and replaced with 60 nM LysoTracker Red DND-99 (Thermo Fisher Scientific) in 100-200 μL DMEM for 1 hour at 37° C. Cells were then washed once with Hank's Balanced Salt Solution (HBSS) (Gibco). Finally, 100-200 μL imaging media (HBSS buffered with 20 mM 4-(2-hydroxyethyl)-1-piperazineethanesulfonic acid (HEPES), adjusted to pH 7.4) was added to cells. Confocal images were captured with an EVOS microscope or a Zeiss LSM510 laser scanning microscope using 60× oil objective lens. […]

A-1.0: E07min aptamer, EGFR-targeting, 5′ Cy5, 2′F U, C, SEQ ID 75 (GGACGGAUUUAAUCGCCGUAGAAAAGCAUGUCAAAGCCGGAACCGUCC; 5′ Cy5; 2′F U and C; 2′ fluorine)
intracellular localisation after internalisation: accumulate in lysosomes after internalisation
